Results published in patent publication US8252814B2, “Agents and crystals for improving excretory potency of urinary bladder” (priority 1998, dated 2012).

Key:
[1] = target: T1, human erythrocyte-derived acetylcholine esterase (Homo sapiens, UniProt P22303); test: Determination of the activity to inhibit the acetylcholine esterase of the crystals (Ellman method), Experimental Example 5; assay type: biochemical; conditions: at least three experiments
T1 construct: Acetylcholinesterase of human erythrocyte origin (Sigma Chemical Co.); purchased Sigma Chemical Co; host or cells: human erythrocytes (natural source)
T1 sequence (P22303 32-617 isoform P22303-2 limits assumed): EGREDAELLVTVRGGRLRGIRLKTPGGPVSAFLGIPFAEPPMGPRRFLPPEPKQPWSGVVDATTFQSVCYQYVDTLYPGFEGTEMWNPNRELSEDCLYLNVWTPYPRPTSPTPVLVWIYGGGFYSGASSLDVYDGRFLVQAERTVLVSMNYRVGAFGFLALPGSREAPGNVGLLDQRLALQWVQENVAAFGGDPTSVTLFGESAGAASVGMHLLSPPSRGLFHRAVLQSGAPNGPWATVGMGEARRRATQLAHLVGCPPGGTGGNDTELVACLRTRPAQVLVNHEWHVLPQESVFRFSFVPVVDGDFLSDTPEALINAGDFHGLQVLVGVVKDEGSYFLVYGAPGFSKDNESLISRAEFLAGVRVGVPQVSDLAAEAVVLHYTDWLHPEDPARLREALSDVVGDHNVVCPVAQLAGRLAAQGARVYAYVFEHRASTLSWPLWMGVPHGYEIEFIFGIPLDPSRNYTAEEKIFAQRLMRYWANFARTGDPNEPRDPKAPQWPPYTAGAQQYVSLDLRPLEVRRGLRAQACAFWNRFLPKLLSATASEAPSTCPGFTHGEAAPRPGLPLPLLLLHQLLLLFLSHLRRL
Experimental: The activity to inhibit the acetylcholine esterase of the crystals obtained in Example 1 was determined according to the acetylthiocholine method (the Ellman method) by the use of a human erythrocyte-derived acetylcholine esterase.
A human erythrocyte-derived acetylcholine esterase (Sigma Chemical Company) was dissolved into distilled water to obtain a standard enzyme preparation with an enzyme concentration of 0.2 IU/mL. […]
The activity to inhibit the acetylcholine esterase of the crystals obtained in Example 1 was determined according to the acetylthiocholine method (the ElIman method) by the use of a human erythrocyte-derived acetylcholine esterase.
A human erythrocyte-derived acetylcholine esterase (Sigma Chemical Company) was dissolved into distilled water to obtain a standard enzyme preparation with an enzyme concentration of 0.2 IU/mL. […] As soon as 50 μl of a 4-mM solution of acetylthiocholine iodide (Sigma Chemical Company) was added and shaking was started again, every increment in absorbance at the wavelength of 414 nm at an interval of 30 seconds was determined for 10 minutes. R=5.74×10^−7×ΔA (wherein R indicates an enzyme activity (mol) and ΔA indicates an increment in absorbance at the wavelength of 414 nm). […] Furthermore, the activity to inhibit the acetylcholine esterase of distigmine was determined in a manner similar to that described in the above method.

[2] = Stability test, Experimental Example 7; assay type: physicochemical
Experimental: A number of specimens of the crystals obtained in Example 1 were stored under the following conditions and then their changes in the property and the remaining percent were determined.
Storing conditions: 1. 60° C. for 3 months (in a brown glass bottle, closed); 2. 45° C., the relative humidity of 75% for 3 months (in a brown glass bottle, closed); 3. 40° C., the to relative humidity of 75% for 3 months (in a brown glass bottle, opened); 4. irradiated with a xenon lamp (60000 lux) for 20 hours (1.2 million lux/hour) (on a Petri dish covered with a polyvinylidene chloride film).

In the case of `O=C(CCC1CCN(Cc2cccc(F)c2)CC1)c1cc2c3c(c1)CCN3C(=O)CC2` [Example 1, 8-[3-[1-[(3-fluorophenyl)-methyl]-4-piperidinyl]-1-oxopropyl]-1,2,5,6-tetrahydro-4H-pyrrolo-[3,2,1-ij]quinolin-4-one], the IC50 [1] is reported as 6.6 nM, the “Remaining percent (%)” value ([2]; storing condition 1 (60° C./3 months), brown glass bottle, closed) is reported as 99.8% and the “Remaining percent (%)” value ([2]; storing condition 2 (40° C./75% RH, closed), 3 months, brown glass bottle) is reported as 101.6%. For the same molecule, the “Remaining percent (%)” value ([2]; storing condition 3 (40° C./75% RH, open), 3 months, brown glass bottle) was 100.2%, the “Remaining percent (%)” value ([2]; storing condition 4 (Xenon lamp/20 hs.), 60000 lux) was 100.1% and the “stability (in words)” value ([2]; storing conditions 1 to 4) was “any change in the property and any decrease in the remaining percent were not observed”.
